Test results taken from patent publication US20110039721A1, “METHOD FOR PREDICTION ABOUT CARCINOGENICITY OF SUBSTANCE IN RODENT” (Chemicals Evaluation and Research Institute, priority 2007, published 2011).

Assays:
[1] = tested on: mRNA expressed from the genes (A) to (D) in rat liver; test: Behavior of genes (mRNA expression level, oligo-DNA microarray) in rat liver after 28-day oral administration; format: in vivo; settings: mRNA vs vehicle control group; for Behavior of gene caused by administration of chemical substance, Gene No. 4846 / Behavior of gene caused by administration of chemical substance, Gene No. 2026 / Behavior of gene caused by administration of chemical substance, Gene No. 4218 / Behavior of gene caused by administration of chemical substance, Gene No. 6182 / Behavior of gene caused by administration of chemical substance, Gene No. 5600: gene group (A); for Behavior of gene caused by administration of chemical substance, Gene No. 4846: Unigene No. Rn.144554; for Behavior of gene caused by administration of chemical substance, Gene No. 2026 / Behavior of gene caused by administration of chemical substance, Gene No. 4218: Unigene No. Rn.167075; for Behavior of gene caused by administration of chemical substance, Gene No. 6182: Unigene No. Rn.5834; for Behavior of gene caused by administration of chemical substance, Gene No. 5600: Unigene No. Rn.9836; for Behavior of gene caused by administration of chemical substance, Gene No. 1494 / Behavior of gene caused by administration of chemical substance, Gene No. 2045 / Behavior of gene caused by administration of chemical substance, Gene No. 2203: gene group (B); for Behavior of gene caused by administration of chemical substance, Gene No. 1494: Unigene No. Rn.1430; for Behavior of gene caused by administration of chemical substance, Gene No. 2045: Unigene No. Rn.19329; for Behavior of gene caused by administration of chemical substance, Gene No. 2203: Unigene No. Rn.21240; for Behavior of gene caused by administration of chemical substance, Gene No. 533 / Behavior of gene caused by administration of chemical substance, Gene No. 725 / Behavior of gene caused by administration of chemical substance, Gene No. 1163 / Behavior of gene caused by administration of chemical substance, Gene No. 4973 / Behavior of gene caused by administration of chemical substance, Gene No. 4095 / Behavior of gene caused by administration of chemical substance, Gene No. 1334 / Behavior of gene caused by administration of chemical substance, Gene No. 6620 / Behavior of gene caused by administration of chemical substance, Gene No. 6303 / Behavior of gene caused by administration of chemical substance, Gene No. 5878 / Behavior of gene caused by administration of chemical substance, Gene No. 1131 / Behavior of gene caused by administration of chemical substance, Gene No. 1562 / Behavior of gene caused by administration of chemical substance, Gene No. 1741 / Behavior of gene caused by administration of chemical substance, Gene No. 893 / Behavior of gene caused by administration of chemical substance, Gene No. 6026 / Behavior of gene caused by administration of chemical substance, Gene No. 154 / Behavior of gene caused by administration of chemical substance, Gene No. 1993 / Behavior of gene caused by administration of chemical substance, Gene No. 813 / Behavior of gene caused by administration of chemical substance, Gene No. 2494 / Behavior of gene caused by administration of chemical substance, Gene No. 2546 / Behavior of gene caused by administration of chemical substance, Gene No. 3776 / Behavior of gene caused by administration of chemical substance, Gene No. 3929 / Behavior of gene caused by administration of chemical substance, Gene No. 1119 / Behavior of gene caused by administration of chemical substance, Gene No. 6742 / Behavior of gene caused by administration of chemical substance, Gene No. 5634: gene group (C); for Behavior of gene caused by administration of chemical substance, Gene No. 533: Unigene No. Rn.106184; for Behavior of gene caused by administration of chemical substance, Gene No. 725: Unigene No. Rn.108075; for Behavior of gene caused by administration of chemical substance, Gene No. 1163: Unigene No. Rn.11766; for Behavior of gene caused by administration of chemical substance, Gene No. 4973: Unigene No. Rn.118529; for Behavior of gene caused by administration of chemical substance, Gene No. 4095: Unigene No. Rn.119024; for Behavior of gene caused by administration of chemical substance, Gene No. 1334 / Behavior of gene caused by administration of chemical substance, Gene No. 6620: Unigene No. Rn.120914; for Behavior of gene caused by administration of chemical substance, Gene No. 6303: Unigene No. Rn.123063; for Behavior of gene caused by administration of chemical substance, Gene No. 5878: Unigene No. Rn.143213; for Behavior of gene caused by administration of chemical substance, Gene No. 1131: Unigene No. Rn.144946; for Behavior of gene caused by administration of chemical substance, Gene No. 1562: Unigene No. Rn.14744; for Behavior of gene caused by administration of chemical substance, Gene No. 1741: Unigene No. Rn.1647; for Behavior of gene caused by administration of chemical substance, Gene No. 893: Unigene No. Rn.164817; for Behavior of gene caused by administration of chemical substance, Gene No. 6026: Unigene No. Rn.167685; for Behavior of gene caused by administration of chemical substance, Gene No. 154: Unigene No. Rn.185941; for Behavior of gene caused by administration of chemical substance, Gene No. 1993: Unigene No. Rn.18728; for Behavior of gene caused by administration of chemical substance, Gene No. 813: Unigene No. Rn.201760; for Behavior of gene caused by administration of chemical substance, Gene No. 2494: Unigene No. Rn.23969; for Behavior of gene caused by administration of chemical substance, Gene No. 2546: Unigene No. Rn.24561; for Behavior of gene caused by administration of chemical substance, Gene No. 3776: Unigene No. Rn.43232; for Behavior of gene caused by administration of chemical substance, Gene No. 3929: Unigene No. Rn.4620; for Behavior of gene caused by administration of chemical substance, Gene No. 1119: Unigene No. Rn.9757; for Behavior of gene caused by administration of chemical substance, Gene No. 6742: Unigene No. Rn.9779; for Behavior of gene caused by administration of chemical substance, Gene No. 5634: Unigene No. Rn.9862; for Behavior of gene caused by administration of chemical substance, Gene No. 5726: gene group (D), Unigene No. Rn.9939
Summary of the method: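 Male F344 SPF rats, 5 weeks old, four per group, received carcinogens, non-carcinogens or solvent vehicle by oral gavage once daily for 28 days. Liver total RNA was then extracted. Changes of ≥1.5-fold or ≤1/1.5 versus vehicle control, in a consistent direction across carcinogens, counted as significant.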

liver = settings: in vivo; cited from earlier work
rodent = settings: in vivo; cited from earlier work

SMILES	Behavior of gene caused by administration of chemical substance, Gene No. 4846 [1]	Behavior of gene caused by administration of chemical substance, Gene No. 2026 [1]	Behavior of gene caused by administration of chemical substance, Gene No. 4218 [1]	Behavior of gene caused by administration of chemical substance, Gene No. 6182 [1]	Behavior of gene caused by administration of chemical substance, Gene No. 5600 [1]	Behavior of gene caused by administration of chemical substance, Gene No. 1494 [1]	Behavior of gene caused by administration of chemical substance, Gene No. 2045 [1]	Behavior of gene caused by administration of chemical substance, Gene No. 2203 [1]	Behavior of gene caused by administration of chemical substance, Gene No. 533 [1]	Behavior of gene caused by administration of chemical substance, Gene No. 725 [1]	Behavior of gene caused by administration of chemical substance, Gene No. 1163 [1]	Behavior of gene caused by administration of chemical substance, Gene No. 4973 [1]	Behavior of gene caused by administration of chemical substance, Gene No. 4095 [1]	Behavior of gene caused by administration of chemical substance, Gene No. 1334 [1]	Behavior of gene caused by administration of chemical substance, Gene No. 6620 [1]	Behavior of gene caused by administration of chemical substance, Gene No. 6303 [1]	Behavior of gene caused by administration of chemical substance, Gene No. 5878 [1]	Behavior of gene caused by administration of chemical substance, Gene No. 1131 [1]	Behavior of gene caused by administration of chemical substance, Gene No. 1562 [1]	Behavior of gene caused by administration of chemical substance, Gene No. 1741 [1]	further results
CN(C)c1ccc(N=Nc2ccccc2)cc1 [TS077, 4-Dimethylaminoazobenzene]	−	−	−	+	−	+	+	−	−	−	−	−	−	−	−	+	−	−	−	−	Behavior of gene caused by administration of chemical substance, Gene No. 893 [1]: −; Behavior of gene caused by administration of chemical substance, Gene No. 6026 [1]: +; Behavior of gene caused by administration of chemical substance, Gene No. 154 [1]: −; Behavior of gene caused by administration of chemical substance, Gene No. 1993 [1]: −; Behavior of gene caused by administration of chemical substance, Gene No. 813 [1]: −; Behavior of gene caused by administration of chemical substance, Gene No. 2494 [1]: −; Behavior of gene caused by administration of chemical substance, Gene No. 2546 [1]: −; Behavior of gene caused by administration of chemical substance, Gene No. 3776 [1]: −; Behavior of gene caused by administration of chemical substance, Gene No. 3929 [1]: −; Behavior of gene caused by administration of chemical substance, Gene No. 1119 [1]: −; Behavior of gene caused by administration of chemical substance, Gene No. 6742 [1]: −; Behavior of gene caused by administration of chemical substance, Gene No. 5634 [1]: −; Behavior of gene caused by administration of chemical substance, Gene No. 5726 [1]: +; Liver carcinogenicity (liver): Cr+; Carcinogenicity (rodent): C+
O=C(O)C1C(C(=O)O)C2(Cl)C(Cl)=C(Cl)C1(Cl)C2(Cl)Cl (stereo not shown) [TS078, Chlorendic acid]	−	+	−	−	−	+	+	+	−	−	+	+	−	−	−	−	−	−	−	−	Behavior of gene caused by administration of chemical substance, Gene No. 893 [1]: −; Behavior of gene caused by administration of chemical substance, Gene No. 6026 [1]: −; Behavior of gene caused by administration of chemical substance, Gene No. 154 [1]: −; Behavior of gene caused by administration of chemical substance, Gene No. 1993 [1]: −; Behavior of gene caused by administration of chemical substance, Gene No. 813 [1]: −; Behavior of gene caused by administration of chemical substance, Gene No. 2494 [1]: −; Behavior of gene caused by administration of chemical substance, Gene No. 2546 [1]: −; Behavior of gene caused by administration of chemical substance, Gene No. 3776 [1]: −; Behavior of gene caused by administration of chemical substance, Gene No. 3929 [1]: −; Behavior of gene caused by administration of chemical substance, Gene No. 1119 [1]: −; Behavior of gene caused by administration of chemical substance, Gene No. 6742 [1]: −; Behavior of gene caused by administration of chemical substance, Gene No. 5634 [1]: +; Behavior of gene caused by administration of chemical substance, Gene No. 5726 [1]: −; Liver carcinogenicity (liver): Cr+; Carcinogenicity (rodent): C+
